The source of these data is ChEMBL document CHEMBL5052842, “Pharmaceutical compounds and their use as inhibitors of ubiquitin specific protease 19 (usp19)” (2020).

This test concerns the target T1, Ubiquitin carboxyl-terminal hydrolase 19 (Homo sapiens, UniProt O94966).
T1 sequence (O94966 whole entry): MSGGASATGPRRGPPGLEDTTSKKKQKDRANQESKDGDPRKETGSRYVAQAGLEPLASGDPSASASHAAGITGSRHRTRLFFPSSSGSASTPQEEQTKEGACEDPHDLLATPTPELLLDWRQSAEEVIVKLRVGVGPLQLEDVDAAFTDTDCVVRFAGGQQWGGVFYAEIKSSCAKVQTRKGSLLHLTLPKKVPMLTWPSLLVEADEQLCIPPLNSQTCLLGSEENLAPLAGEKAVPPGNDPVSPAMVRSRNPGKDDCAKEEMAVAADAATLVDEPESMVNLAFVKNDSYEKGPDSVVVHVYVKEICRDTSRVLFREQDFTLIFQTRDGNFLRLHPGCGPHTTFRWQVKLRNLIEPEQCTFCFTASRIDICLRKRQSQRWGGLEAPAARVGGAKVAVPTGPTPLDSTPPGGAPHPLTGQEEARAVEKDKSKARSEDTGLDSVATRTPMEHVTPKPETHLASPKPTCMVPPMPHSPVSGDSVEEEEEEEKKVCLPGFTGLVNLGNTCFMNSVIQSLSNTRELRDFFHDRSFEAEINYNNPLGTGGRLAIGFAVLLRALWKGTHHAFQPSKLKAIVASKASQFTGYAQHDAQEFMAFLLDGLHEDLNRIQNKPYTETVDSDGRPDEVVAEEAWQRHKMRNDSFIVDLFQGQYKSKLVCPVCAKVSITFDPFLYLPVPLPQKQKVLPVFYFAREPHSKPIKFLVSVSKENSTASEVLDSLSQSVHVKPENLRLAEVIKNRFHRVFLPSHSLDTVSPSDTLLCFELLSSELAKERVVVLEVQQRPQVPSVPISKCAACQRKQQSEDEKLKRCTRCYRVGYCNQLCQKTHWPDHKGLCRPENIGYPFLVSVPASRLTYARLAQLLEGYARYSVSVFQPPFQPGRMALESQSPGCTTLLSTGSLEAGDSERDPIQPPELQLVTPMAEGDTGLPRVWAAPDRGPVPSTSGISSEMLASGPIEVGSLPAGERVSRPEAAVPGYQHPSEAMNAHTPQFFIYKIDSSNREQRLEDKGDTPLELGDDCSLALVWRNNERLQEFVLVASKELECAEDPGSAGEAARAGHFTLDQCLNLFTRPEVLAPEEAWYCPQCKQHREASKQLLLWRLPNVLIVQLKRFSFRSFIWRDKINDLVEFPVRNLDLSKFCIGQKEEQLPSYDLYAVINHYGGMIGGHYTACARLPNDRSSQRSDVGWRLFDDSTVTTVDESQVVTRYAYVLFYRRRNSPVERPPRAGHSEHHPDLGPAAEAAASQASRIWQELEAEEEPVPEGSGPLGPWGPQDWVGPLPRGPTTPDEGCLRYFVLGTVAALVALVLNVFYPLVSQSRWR
The test is described as follows: Inhibition of C-terminal His6-tagged recombinant human USP19 using iso-peptide ubiquitin-Lys-TAMRA as substrate incubated for 30 mins and measured after 90 mins by fluorescent polarization assay.

Usually IC50 stands for the concentration at which inhibition is half-maximal. Take `Cn1ccc(-c2cc(=O)n(C[C@]3(O)CCN(C(=O)N4CCNC[C@H]4c4ccccc4)CC34CCCC4)cn2)n1`: the half-inhibitory concentration (IC50) was under 500 nM. As for `O=C(N1CCC(O)(Cn2cc(F)c(-c3ccccc3)cc2=O)C2(CCCC2)C1)N1CCNC[C@H]1c1ccccc1` (some centres undefined), the IC50 is under 500 nM.

In the case of `Cn1cc(-c2ccn(C[C@]3(O)CCN(C(=O)N4CCNC[C@H]4c4ccccc4)CC34CCCC4)c(=O)c2)cn1`, the 50% inhibitory concentration (IC50) is under 500 nM. As for `COc1cccc(-c2cc(=O)n(C[C@]3(O)CCN(C(=O)N4CCNC[C@H]4c4ccccc4)CC34CCCC4)cn2)c1`, the IC50 is under 500 nM. `O=C(N1CC[C@@](O)(Cn2cnc(-c3ccccc3)cc2=O)C2(CCCC2)C1)N1CCNC[C@H]1c1cc(F)ccc1F`: the half-maximal inhibitory concentration (IC50) is under 500 nM. As for `COc1ccc(-c2cc(=O)n(C[C@]3(O)CCN(C(=O)N4CCNC[C@H]4c4ccccc4)CC34CCCC4)cn2)s1`, the IC50 is under 500 nM.

As to `O=C(N1CC[C@@](O)(Cn2cnc(N3CCC(F)CC3)cc2=O)C2(CCCC2)C1)N1CCNC[C@H]1c1ccccc1`, the concentration for half-maximal inhibition (IC50) is under 500 nM. The same measure for `O=C(N1CC[C@@](O)(Cn2cnc(-c3cccc(F)c3)cc2=O)C2(CCCC2)C1)N1CCNC[C@H]1c1cc(F)ccc1F`: under 500 nM. Regarding `O=C(N1CC[C@@](O)(Cn2ccc(N3CCCC3)cc2=O)C2(CCCC2)C1)N1CCNC[C@H]1c1ccccc1`, the IC50 was under 500 nM. With `O=C(N1CC[C@@](O)(Cn2cnc(-c3ccccc3F)cc2=O)C2(CCCC2)C1)N1CCNC[C@H]1c1cccc(F)c1`, the half-maximal inhibitory concentration (IC50) is under 500 nM. On to `O=C(N1CC[C@@](O)(Cn2cnc(N3CC4CC4C3)cc2=O)C2(CCCC2)C1)N1CCNC[C@H]1c1ccccc1` (some centres undefined), for which the concentration for half-maximal inhibition (IC50) was under 500 nM.

`Cn1nc(C(F)(F)F)cc1-c1cc(=O)n(C[C@]2(O)CCN(C(=O)N3CCNC[C@H]3c3ccccc3)CC23CCCC3)cn1`: the IC50 was under 500 nM.

For `O=C(N1CC[C@@](O)(Cn2ccc(-c3ccccc3)cc2=O)C2(CCCC2)C1)N1CCNC[C@H]1c1cc(F)ccc1F`, the IC50 was under 500 nM. As for `O=C(N1CC[C@@](O)(Cn2cnc(-c3ccsc3)cc2=O)C2(CCCC2)C1)N1CCNC[C@H]1c1ccccc1`, the 50% inhibitory concentration (IC50) is under 500 nM. Consider `O=C(N1CC[C@@](O)(Cn2cnc(C3CC3)cc2=O)C2(CCCC2)C1)N1CCNC[C@H]1c1cc(F)ccc1F`, for which the IC50 was under 500 nM. On to `O=C(N1CC[C@@](O)(Cn2cnc(-c3ccccc3C(F)F)cc2=O)C2(CCCC2)C1)N1CCNC[C@H]1c1ccccc1`, for which the IC50 was under 500 nM. Regarding `N=S1(=O)CCN(C(=O)N2CC[C@@](O)(Cn3cnc(-c4ccccc4)cc3=O)C3(CCCC3)C2)C(c2ccccc2)C1` (some centres undefined), the IC50 was under 500 nM. With `O=C(N1CC[C@@](O)(Cn2cnc(-c3ccccc3)cc2=O)C2(CCCC2)C1)N1CCNC[C@H]1c1cccc(F)c1F`, the IC50 is under 500 nM. For the compound `O=C(N1CC[C@@](O)(Cn2cnc(-c3ccccc3)cc2=O)C2(CCCC2)C1)N1CCNC[C@H]1c1ccc(F)cc1`, the IC50 is under 500 nM. The result for `O=C(N1CC[C@@](O)(Cn2cnc(-c3ccc4c(c3)CCO4)cc2=O)C2(CCCC2)C1)N1CCNC[C@H]1c1ccccc1` reads under 500 nM. As for `COc1ccccc1-c1cc(=O)n(C[C@]2(O)CCN(C(=O)N3CCNC[C@H]3c3cccc(F)c3)CC23CCCC3)cn1`, the IC50 is under 500 nM. The result for `O=C(N1CC[C@@](O)(Cn2cnc(N3CCC(F)(F)CC3)cc2=O)C2(CCCC2)C1)N1CCNC[C@H]1c1ccccc1` reads under 500 nM. Take `O=C(N1CC[C@@](O)(Cn2cnc(-c3ccccc3)cc2=O)C2(CCCC2)C1)N1CCNCC1c1ccc(C(F)(F)F)cc1` (some centres undefined): the concentration for half-maximal inhibition (IC50) is under 500 nM.

As for `O=C(N1CC[C@@](O)(Cn2cnc(-c3ccccc3C(F)(F)F)cc2=O)C2(CCCC2)C1)N1CCNC[C@H]1c1ccccc1`, the IC50 was under 500 nM. As to `O=C(N1CC[C@@](O)(Cn2cnc(-c3ccccc3)cc2=O)C2(CCCC2)C1)N1CCS(=O)(=O)CC1c1ccccc1` (some centres undefined), the half-maximal inhibitory concentration (IC50) is under 500 nM. The result for `O=C(N1CC[C@@](O)(Cn2cnc(-c3ccc(OC4CC4)cc3)cc2=O)C2(CCCC2)C1)N1CCNC[C@H]1c1ccccc1` reads under 500 nM; that for `O=C(N1CC[C@@](O)(Cn2cnc(C3CC3)cc2=O)C2(CCCC2)C1)N1CCNC[C@H]1c1cccc(F)c1`, under 500 nM.

Consider `O=C(N1CC[C@@](O)(Cn2cnc(-c3ccccc3)cc2=O)C2(CCCC2)C1)N1CCNCC1c1ccsc1` (some centres undefined), for which the half-inhibitory concentration (IC50) was under 500 nM. `O=C(N1CC[C@@](O)(Cn2cnc(-c3ccccc3)cc2=O)C2(CCCC2)C1)N1CCNCC1c1ccc(F)c(F)c1` (some centres undefined): the IC50 is under 500 nM.

On to `O=C1CN(C(=O)N2CC[C@@](O)(Cn3cnc(-c4ccccc4)cc3=O)C3(CCCC3)C2)[C@H](c2ccccc2)CN1`, for which the concentration for half-maximal inhibition (IC50) was under 500 nM. The result for `O=C(N1CC[C@@](O)(Cn2cnc(N3CCCC(F)(F)C3)cc2=O)C2(CCCC2)C1)N1CCNC[C@H]1c1ccccc1` reads under 500 nM; that for `O=C(N1CC[C@@](O)(Cn2cnc(N3CCCCC3)cc2=O)C2(CCCC2)C1)N1CCNC[C@H]1c1ccccc1`, under 500 nM. On to `O=C(N1CC[C@@](O)(Cn2cnc(-c3ccccc3)cc2=O)C2(CCCC2)C1)N1CCNCC1c1ccccc1F` (some centres undefined), for which the IC50 is under 500 nM. As to `Cc1cccc(F)c1-c1cc(=O)n(C[C@]2(O)CCN(C(=O)N3CCNC[C@H]3c3ccccc3)CC23CCCC3)cn1`, the IC50 was under 500 nM. The result for `Cc1ccc(-c2cc(=O)n(C[C@]3(O)CCN(C(=O)N4CCNC[C@H]4c4ccccc4)CC34CCCC4)cn2)cc1` reads under 500 nM; that for `O=C(N1CC[C@@](O)(Cn2cnc(-c3cccc(F)c3)cc2=O)C2(CCCC2)C1)N1CCNC[C@H]1c1cccc(F)c1`, under 500 nM. Take `O=C(N1CC[C@@](O)(Cn2cnc(-c3ccc4c(c3)OCC4)cc2=O)C2(CCCC2)C1)N1CCNC[C@H]1c1ccccc1`: the half-maximal inhibitory concentration (IC50) is under 500 nM.

Regarding `COc1c(F)cccc1-c1cc(=O)n(C[C@]2(O)CCN(C(=O)N3CCNC[C@H]3c3ccccc3)CC23CCCC3)cn1`, the IC50 is under 500 nM. In the case of `Cc1cccc(-c2cc(=O)n(C[C@]3(O)CCN(C(=O)N4CCNC[C@H]4c4ccccc4)CC34CCCC4)cn2)c1`, the IC50 was under 500 nM. On to `O=C(N1CC[C@@](O)(Cn2cnc(-c3ccccc3)cc2=O)C2(CCCC2)C1)N1CCNCC1c1cc(F)cc(F)c1` (some centres undefined), for which the IC50 was under 500 nM. For the compound `O=C(N1CC[C@@](O)(Cn2cnc(-c3ccccc3)cc2=O)C2(CCCC2)C1)N1CCSCC1c1ccccc1` (some centres undefined), the IC50 was under 500 nM.

On to `O=C(N1CC[C@@](O)(Cn2cnc(-c3ccccc3)cc2=O)C2(CCCC2)C1)N1CCNC[C@H]1c1ccc(F)cc1F`, for which the half-maximal inhibitory concentration (IC50) was under 500 nM. As to `O=C(N1CC[C@@](O)(Cn2cnc(-c3ccccc3OC(F)F)cc2=O)C2(CCCC2)C1)N1CCNC[C@H]1c1ccccc1`, the IC50 was under 500 nM.

As to `O=C(N1CC[C@@](O)(Cn2cnc(-c3cccs3)cc2=O)C2(CCCC2)C1)N1CCNC[C@H]1c1ccccc1`, the IC50 is under 500 nM.

Consider `O=C(N1CC[C@@](O)(Cn2cnc(-c3ccc(Cl)cc3)cc2=O)C2(CCCC2)C1)N1CCNC[C@H]1c1ccccc1`, for which the IC50 is under 500 nM.

As to `O=C(N1CC[C@@](O)(Cn2cnc(-c3ccccc3OC(F)(F)F)cc2=O)C2(CCCC2)C1)N1CCNC[C@H]1c1ccccc1`, the half-maximal inhibitory concentration (IC50) was under 500 nM.

On to `O=C(N1CC[C@@](O)(Cn2cnc(-c3ccccc3OC3CC3)cc2=O)C2(CCCC2)C1)N1CCNC[C@H]1c1ccccc1`, for which the concentration for half-maximal inhibition (IC50) was under 500 nM. With `O=C(N1CC[C@@](O)(Cn2cnc(-c3ccccc3)cc2=O)C2(CCCC2)C1)N1CCNCC1c1cccs1` (some centres undefined), the IC50 is under 500 nM.

Regarding `Cc1ccccc1-c1cc(=O)n(C[C@]2(O)CCN(C(=O)N3CCNC[C@H]3c3ccccc3)CC23CCCC3)cn1`, the half-maximal inhibitory concentration (IC50) is under 500 nM. Turning to `O=C(N1CC[C@@](O)(Cn2cnc(N3CCC(F)(F)C3)cc2=O)C2(CCCC2)C1)N1CCNC[C@H]1c1ccccc1`, the IC50 was under 500 nM.

Regarding `O=C(N1CC[C@@](O)(Cn2cnc(N3CC(F)(F)C3)cc2=O)C2(CCCC2)C1)N1CCNC[C@H]1c1ccccc1`, the IC50 is under 500 nM.

Regarding `COc1cccc(F)c1-c1cc(=O)n(C[C@]2(O)CCN(C(=O)N3CCNC[C@H]3c3ccccc3)CC23CCCC3)cn1`, the IC50 is under 500 nM. With `O=C(N1CC[C@@](O)(Cn2cnc(-c3ccc4c(c3)COC4)cc2=O)C2(CCCC2)C1)N1CCNC[C@H]1c1ccccc1`, the concentration for half-maximal inhibition (IC50) was under 500 nM. With `COc1ccc(-c2cc(=O)n(C[C@]3(O)CCN(C(=O)N4CCNC[C@H]4c4ccccc4)CC34CCCC4)cn2)cc1`, the IC50 was under 500 nM.
